# Source: patent US20210139540A1, “MULTIVALENT LIGAND-LIPID CONSTRUCTS” (priority 2014, published 2021)
# Test system: kodecytes
# Test: Complement induced cell lysis of kodecytes in pooled AB serum
# Assay type: cell-based
# Details: for Abs 1: duplicate 1; for Abs 2: duplicate 2; for (A1 and A2): from duplicates; for Sensitivity of kodecytes to lysis compared with kodecytes prepared using construct 49: complement mediated autolysis; for Calculated %: percentage of cells lysed using standard curve; for Measured %: percentage of cells lysed, construct 49 set as 100; for Degree of lysis: qualitative
# Experimental: Preparation of kodecytes Stock solutions of constructs (35, 47, 48 and 49) were prepared at a concentration of 1 mg/mL in a red blood cell (RBC) preservative solution (CELPRESOL™, CSL Limited). Prior to dilution each stock solution was vortexed for 45 seconds at room temperature (r.t.). A volume of 100 μL of diluted stock solution was added to a volume of 100 μL centrifugally packed RBCs (packed cell volume; PCV). The total volume of 200 μL suspended RBCs was incubated at 37° C. for 2 hours before washing with CELPRESOL™ and re-suspending the modified RBCs (“kodecytes”) at a concentration of 5% PCV in CELPRESOL™.
# Prior to use kodecytes were washed and re-suspended 5% PCV in phosphate buffered saline (PBS). Uniformity of concentration of RBCs was confirmed by adding a volume of 40 μL of kodecyte suspension to a volume of 1 mL of Drabkins solution and the absorbance measured at 540 nm against Drabkins solution (blank). Variations in measured absorbances was reduced to less than 10% by adjustment of suspending volume.
# The ability of constructs to induce complement mediated autolysis was evaluated by a method analogous to that described in the publication of Henry and Komarraju (2012). For the present studies kodecytes prepared using construct 49 were used as a 100% lysis control. A volume of 200 μL pooled AB serum and a volume of 100 μL kodecytes prepared using construct 49 at a concentration of 750 μg/mL was used as the 100% lysis control. A volume of 200 μL pooled AB serum and a volume of 100 μL O group RBCs (prepared as kodecytes without the addition of construct) was used as the 0% lysis control. To measure the ability of constructs to induce complement mediated autolysis of kodecytes volumes of 200 μL of pooled AB serum were dispensed into duplicate sets of test tubes. A volumes of 100 μL kodecytes was added to the tubes before incubation at 37° C. for 1 hour. Following incubation a volume of 1 μL ethylenediaminetetraacetic acid (EDTA) as its dipotassium salt
# was added to each to each test tube to provide a final concentration of 0.1 mM EDTA. The test tubes were then centrifuged and the characteristics of the sedimented RBCs and supernatant observed (Table 2 and FIG. 2). In addition a volume of 160 μL of the cell free supernatant was removed and added to a volume of 1 mL of Drabkins solution. The absorbance of the solution was then measured at 540 nm against a volume of 160 μL pooled AB serum added to a volume of 1 mL of Drabkins solution (blank). The absorbance of the supernatant was calculated as a percentage of the initial absorbance of the suspension of kodecytes. The percentage of cells lysed was calculated against a standard curve.
# [1] = absorbance 540 nm of supernatant, concentration not given
# [2] = absorbance 540 nm, concentration not given
# [3] = pooled AB serum, 37° C., 1 hour, construct concentration not given
# [4] = absorbance 540 nm, 100% lysis control (construct 49 at 750 μg/mL)
Compound,Abs 1 [1],Abs 2 [1],(A1 and A2) [2],Sensitivity of kodecytes to lysis compared with kodecytes prepared using construct 49 (pooled AB serum),Calculated % (concentration not given),Measured % (concentration not given),Degree of lysis [3],Abs 1 [4],Abs 2 [4],(A1 and A2) [4],Calculated % (100% lysis control (construct 49 at 750 μg/mL)),Degree of lysis (100% lysis control: kodecytes prepared using construct 49 at 750 μg/mL)
Galili-CMG2-Ad-DOPE [construct 47],.224,.243,.234,somewhat more sensitive,65%,128%,Partial,–,–,–,–,–
Galα1-3Galβ1-4GlcNAc-Ad-DOPE [construct 49],.178,.187,.183,–,51%,Set as 100%,Partial,.303,.310,.307,85%,Complete
"CCCCCCCC/C=C\CCCCCCCC(=O)OCC(COP(=O)(O)OCCNC(=O)CCCCC(=O)NCCCO[C@@H]1OC(CO)[C@@H](O[C@@H]2OC(CO)[C@H](O)C(O[C@H]3OC(CO)[C@H](O)C(O)C3NC(C)=O)C2O)C(O)C1NC(C)=O)OC(=O)CCCCCCC/C=C\CCCCCCCC (stereo partly shown) [construct 48, GalNAcα1-3Galβ1-4GlcNAc-Ad-DOPE]",.349,.345,.347,approximately twice as sensitive,95%,190%,Complete,–,–,–,–,–
